{
  "source": "patent US20120015331A1",
  "about": "“SCAFFOLD” (priority 2009, published 2012)",
  "key": {"L. Casei": {"system": "L. Casei", "assay": "Bacterial killing assay (PDT, Example 5)", "format": "cell-based", "settings": "22 μM erythrosine in BHI broth", "method": "L. Casei is a known constituent of gut microflora. A growth curve for L. Casei both in the presence and without erythrosine was prepared using broth turbidity measured by spectrophotometry using a Shimadzu UV-1601 UV-Visible spectrophotometer. L. Casei were grown in Brain Heart Infusion (BHI) liquid broth at 37° C. to stationary phase overnight. A fresh volume of BHI broth containing erythrosine released from the scaffold at a concentration known to be effective for PDT was inoculated using the stationary phase culture and incubated at 37° C. in a shaking incubator. Bacteria were also incubated in BHI with non scaffold derived erythrosine, BHI containing an equal concentration of scaffold breakdown products from a non erythrosine containing scaffold or blank scaffold and BHI alone with no additives. Since bacteria are most sensitive to PDT during log phase this was chosen as the time most appropriate for irradiation therefore irradiation took place 2 hours 30 minutes after inoculation. […] Following irradiation bacterial viability was assessed by spreading broth samples on Columbia blood agar plates and following 48 hour incubation counting the number of visible colonies. The number of colony forming units (cfu)/ml of broth were then calculated. […]"}, "L casei": {"system": "L casei", "assay": "L casei cultures in BHI with additives, foil-wrapped or exposed to light (Example 16)", "format": "cell-based", "method": "Pieces of blank PGA scaffold and PGA scaffold containing 5 w/w % erythrosine B were incubated overnight in BHI and the scaffold was removed before adding L Casei culture, the erythrosine B concentration was measured and adjusted to 22 μM. For each of the ‘media’ shown in Table 1, two tubes of culture, one tube wrapped in foil, were exposed to light for 30 minutes. After exposure to light, serial dilutions were made of the cultures in BHI which were then grown on Columbian blood agar plates for 48 hours. The number of colonies on the plates was then counted and those having between 30 and 300 colonies were used to calculate the cfu/ml for the cultures. […] PDT (erythrosine plus light) causes 6 logs of cell kill, whereas in the presence of glycolic acid released from the scaffold (or added to a similar concentration out of a bottle), the amount of cell killing doubles or more."}},
  "note": "Counter-ions that a name gives are not always drawn.",
  "data": [
    {"smiles": "O=C1OC2(c3ccccc31)c1cc(I)c(O)c(I)c1Oc1c2cc(I)c(O)c1I", "note": "[Erythrosin B, disodium salt of 2′,4,′5,′7′-tetraiodofluorescein]", "values": [
      {"measurement": "log10 kill", "setting": "L. Casei; 10 minutes irradiation", "value": 6.1, "unit": "log10"},
      {"measurement": "log10 kill", "setting": "L. Casei; 30 minute irradiation", "value": 6.4, "unit": "log10"},
      {"measurement": "cell kill by PDT (erythrosine plus light)", "setting": "L casei; 22 μM, light for 30 minutes", "value": 6, "unit": "logs"},
      {"measurement": "colony forming units, culture tubes wrapped in foil and exposed to light (F)", "setting": "L casei; BHI, 30 minutes, foil-wrapped, erythrosin 22 μM where present", "value": "2.75 × 10^8 cfu/ml"},
      {"measurement": "colony forming units, culture tubes exposed to light (L)", "setting": "L casei; BHI, exposed to light for 30 minutes, erythrosin 22 μM where present", "value": "2.1 × 10^2 cfu/ml"}
    ]}
  ]
}
